In patent EP0911330B1, “1-(4-Arylpiperazine-1-y1)-3-(2-oxopyrrolidin/piperidin-1-y1) propanes as therapeutic agents for hypertension, ischemia, cardiovascular and other adrenergic receptors related disorders” (Council of Scientific & Industrial Research, priority 1997, dated 1999):

Key:
Acute toxicity (LD50) = conditions: mouse, in vivo, Mice
[1] = test system: Naturally occuring hypertensive cat; test: Effect on blood pressure, heart rate and adrenaline vasopressor response, anaesthetized naturally hypertensive cat; format: in vivo
Experimental: (§1) 2. Effect on blood pressure, heart rate and adrenaline vasopressor response of anaesthetized (pentobarbitone sodium 40 & 60 mg/kg i.p. in cat and rat respectively) normotensive & hypertensive rat & cat model preparations.
(§2) • (a) Cats (2.6-4.0 kg) of either sex anaesthetized with pentobarbitone sodium (40 mg/kg i.v.) and showing basal mean arterial blood pressure below 150 mm (Hg) were categorised as normotensive and above 150 mm Hg as hypertensive. Arterial blood pressure (BP) was recorded from one of the carotid artery through a stathum P23 DC pressure transducer and 7P1 low level DC preamplifier on a Grass Model P7 Polygraph, Signals from 7P1 preamplifier were used to trigger 7P4 Tachograph preamplifier for recording the heart rate (HR). Right femoral vein and Trachea were cannulated for intravenous injections and artificial ventilation respectively. Control responses to intravenous injection of noradrenaline (2-4 ug); acetyl choline (1-2 ug); histamine ([…]) and isoprenaline (1-2 ug) were taken before and after the administration of test doses of each compounds.

Normotensive cat = test: Effect on blood pressure, heart rate and adrenaline vasopressor response, anaesthetized normotensive cat; format: in vivo
Experimental: as §1, §2

[2] = test system: Hypertensive rat model preparation; test: Effect on blood pressure, heart rate and adrenaline vasopressor response, anaesthetized hypertensive rat model; format: in vivo
Experimental: 2. Effect on blood pressure, heart rate and adrenaline vasopressor response of anaesthetized (pentobarbitone sodium 40 & 60 mg/kg i.p. in cat and rat respectively) normotensive & hypertensive rat & cat model preparations. […]

[3] = test system: Normotensive rat model preparation; test: Effect on blood pressure, heart rate and adrenaline vasopressor response, anaesthetized normotensive rat; format: in vivo
Experimental: as §1

Spinal transected cat = test: Site of action: spinal transected cat, blood pressure; format: in vivo; conditions: dose 2-10 umol/kg i.d.
[4] = Site of action: ICV administration, blood pressure; format: in vivo; conditions: dose 0.34-1.36 (column head: umol/kg i.d.)
Rat hind limb perfusion = test: Site of action: rat hind limb perfusion, flow; format: in vivo
Isolated aortic strip = test: Isolated aortic strip, endothelin induced contraction
[5] = test system: Isolated Guinea pig ileum preparation; test: Isolated guinea pig ileum, antihistaminic activity; conditions: 0.5-5.0 ug/ml
[6] = test system: Langendorffs perfused rat heart preparation; test: Langendorff perfused rat heart, chronotropic effect
[7] = test system: histamine induced bronchoconstriction; test: Konzett and Rossler preparation, histamine induced bronchoconstriction; format: in vivo
[8] = test system: Rat aortic ring preparation; test: Rat aortic ring preparation, NE induced contraction
cat [9] = test: Drug antagonism studies of the antihypertensive effect in cat; format: in vivo; conditions: 2 uMol dose i.v.
cat [10] = test: Comparative antihypertensive effect with clinically used antihypertensive drugs in cat; format: in vivo; conditions: 2 uMol/kg i.v.
Text: (4) Comparative antihypertensive effect with clinically used antihypertensive drugs at 2 uMol/kg i.v. dose in cat

[11] = test system: Langendorff perfused rat heart preparation; test: Cardioprotective activity, Langendorff perfused rat heart, prolonged ischemic insult, compound given at reperfusion
Experimental: Further, in Langendorff perfused rat heart preparation subjected to even upto 90 min. global ischemia, the compound at 0.001 ug/ml conc. given at the time of reperfusion revived normal rhythmic contraction started within 2 min. (Table 1) and incidence of reperfusion induced arrhythmia were abolished. Table 1: Compound administered at the time of reperfusion at the dose of 0.001 ug/ml on prolong period (90 min.) of ischemic insult.
(§3) The rats were killed by decapitation, heart were rapidly excised and placed in ice-cold HEPES tyrode buffer. Then isolated hearts were perfused retrogradely through coronary arteries using the Langendorff technique. The perfusion buffer consisted (in mM) NaCl 137, KCl 5.4, CaCl2 1.8, MgCl2 1.0, glucose 11.2 and HEPES 3.0. The buffer (pH 7.4) was continuously gassed with oxygen and maintained at 37°C. Coronary flow rate was maintained at 10 ml/min. The heart contracted spontaneously.
(§4) The perfused heart was allowed to equilibrate for 30 min. before initiation of any insult protocol. The text compounds were given at the time of reperfusion. Some of the compounds were dissolved in ethanol. Final concentration of ethanol in the perfusion buffer was 0.0001% and had no effect of its own on the parameter used. • (a) For brief period of ischemic insult (Hideo et al.). Pathophysiology and pathogenesis of stunned myocardium. J. Clin. Invest., 79, 950-961, 1987). Ischemia was initiated by stopping the flow for 16 min. followed by 30 min. reperfusion period. The durations were decided on the initial pilot experiments leading to 50% recovery of function. • (b) For prolong period of ischemic insult (Becker, L.C. & Ambrosio, G. Myocardial consequences of reperfusion. Prog. Cardiovas. Dis., 30, 23-44, 1987). Ischemia was initiated by stopping the flow for […]. followed by 30 min. reperfusion.

cat [12] = test: Effect on blood pressure and adrenaline vasopressor response in anaesthetized cat, i.v. (Table 2); format: in vivo
Experimental: as §2

[13] = test system: Langendorff perfused rat heart; test: Antiischemic activity, Langendorff perfused rat heart, brief (16 min.) ischemic insult, compound given at reperfusion (Table 3); conditions: 0.001 ug/ml at reperfusion
Experimental: Table 3: Compound administered at the time of reperfusion at a dose of 0.001 ug/ml on brief period (16 min.) of ischemic insult.
as §3, §4

[14] = dose 20 uMol/kg i.d., in beats/min (unit assumed)
[15] = up to 90 min. global ischemia, 0.001 ug/ml given at the time of reperfusion

With `O=C1CCCN1CCCN1CCN(c2ccc(F)cc2)CC1` [C6H4-4-F, n=1, 1-[4-(4-fluorophenyl)piperazin-1-yl]-3-[2-oxopyrrolidin-1-yl]propane] the LD50 (Acute toxicity (LD50); ip) was 147 mg/kg, the LD50 (Acute toxicity (LD50); po) was 562 mg/kg and the “Adrenaline vasopressure response % inhibition” value ([1]; dose 10 uMol/kg i.d.) was 49%. For the same compound, the B.P. fall ([1]; dose 10 uMol/kg i.d.) was 16%, the Dur. ([1]; dose 10 uMol/kg i.d.) was 110 min and the “Heart rate Pre treatment” value ([1]; dose 10 uMol/kg i.d.) was 195/195. For the same compound, the “Heart rate post treatment” value ([1]; dose 10 uMol/kg i.d.) was 195/195, the B.P. fall ([1]; dose 20 uMol/kg i.d.) was 22% and the Dur. ([1]; dose 20 uMol/kg i.d.) was >156.75 min. The “Heart rate Pre treatment” value [1, 14] was 177, the “Heart rate post treatment” value [1, 14] was 185 and the “Adrenaline vasopressure response % inhibition” value (Normotensive cat; dose 10 uMol/kg i.d.) was 26%. The B.P. fall (Normotensive cat; dose 10 uMol/kg i.d.) was 22%, the Dur. (Normotensive cat; dose 10 uMol/kg i.d.) was 85 min and the Heart rate Pre treatment (Normotensive cat; dose 10 uMol/kg i.d.) was 200 beats/min. The Heart rate post treatment (Normotensive cat; dose 10 uMol/kg i.d.) was 170 beats/min, the “Adrenaline vasopressure response % inhibition” value (Normotensive cat; dose 20 uMol/kg i.d.) was 34.75% and the B.P. fall (Normotensive cat; dose 20 uMol/kg i.d.) was 21%. For the same compound, the Dur. (Normotensive cat; dose 20 uMol/kg i.d.) was >102.5 min, the Heart rate Pre treatment (Normotensive cat; dose 20 uMol/kg i.d.) was 185 beats/min and the Heart rate post treatment (Normotensive cat; dose 20 uMol/kg i.d.) was 165 beats/min. The “Adrenaline vasopressure response % inhibition” value ([2]; dose 5 uMol/kg i.d.) was 33%, the B.P. fall ([2]; dose 5 uMol/kg i.d.) was 27% and the Dur. ([2]; dose 5 uMol/kg i.d.) was 51 min. The Heart rate Pre treatment ([2]; dose 5 uMol/kg i.d.) was 346 beats/min, the Heart rate post treatment ([2]; dose 5 uMol/kg i.d.) was 320 beats/min and the “Adrenaline vasopressure response % inhibition” value ([2]; dose 10 uMol/kg i.d.) was 23%. For the same compound, the B.P. fall ([2]; dose 10 uMol/kg i.d.) was 22%, the Dur. ([2]; dose 10 uMol/kg i.d.) was 76 min and the Heart rate Pre treatment ([2]; dose 10 uMol/kg i.d.) was 356 beats/min. The Heart rate post treatment ([2]; dose 10 uMol/kg i.d.) was 340 beats/min, the “Adrenaline vasopressure response % inhibition” value ([2]; dose 20 uMol/kg i.d.) was 54% and the B.P. fall ([2]; dose 20 uMol/kg i.d.) was 29%. The Dur. ([2]; dose 20 uMol/kg i.d.) was 100 min, the Heart rate Pre treatment ([2]; dose 20 uMol/kg i.d.) was 310 beats/min and the Heart rate post treatment ([2]; dose 20 uMol/kg i.d.) was 275 beats/min. It also gave a B.P. fall ([3]; dose 2 uMol/kg i.v.) of 25%, a Dur. ([3]; dose 2 uMol/kg i.v.) of 11 min and a Heart rate Pre treatment ([3]; dose 2 uMol/kg i.v.) of 350 beats/min. The Heart rate post treatment ([3]; dose 2 uMol/kg i.v.) was 370 beats/min, the B.P. fall ([3]; dose 10 uMol/kg i.v.) was 10% and the Dur. ([3]; dose 10 uMol/kg i.v.) was 3 min. It also gave a Heart rate Pre treatment ([3]; dose 10 uMol/kg i.v.) of 315 beats/min, a Heart rate post treatment ([3]; dose 10 uMol/kg i.v.) of 360 beats/min and a B.P. fall ([3]; dose 20 uMol/kg i.v.) of 21%. It also gave a Dur. ([3]; dose 20 uMol/kg i.v.) of 27.5 min, a Heart rate Pre treatment ([3]; dose 20 uMol/kg i.v.) of 315 beats/min and a Heart rate post treatment ([3]; dose 20 uMol/kg i.v.) of 285 beats/min. The B.P. fall (Spinal transected cat) was 14-18%, the Dur. (Spinal transected cat) was 15 to 30 min and the B.P. fall [4] was 8-10%. For the same compound, the Dur. [4] was 10 to 15 min, the “Percent change in flow” value (Rat hind limb perfusion; total dose 10 ug) was “no effect” and the “Percent change in flow” value (Rat hind limb perfusion; total dose 25 ug) was “+35 (Vasodilatation) Percent”. The “Percent change in flow” value (Rat hind limb perfusion; total dose 50 ug) was “+50 (Vasodilatation) Percent”, the Endothelin induced contraction (Isolated aortic strip) was “inhibited significantly” and the “Response to endothelin after washing the preparation” value (Isolated aortic strip; after washing) was “relaxation rather than contraction”. The antihistaminic activity [5] was “significant antihistaminic activity”, the “duration of negative chronotropic effect” value ([6]; 1 ug) was 10 min and the negative chronotropic effect ([6]; 1 ug) was 30%. For the same compound, the “duration of negative chronotropic effect” value ([6]; 3 ug) was 14 min, the negative chronotropic effect ([6]; 3 ug) was 26% and the “duration of negative chronotropic effect” value ([6]; 5 ug) was 5 min. For the same compound, the negative chronotropic effect ([6]; 5 ug) was 5%, the “antihistaminic activity against histamine induced bronchoconstriction” value [7] was “some antihistaminic activity” and the NE induced contraction [8] was “inhibited”. For the same compound, the “reduction of the fall in blood pressure” value (cat [9]; glibenclamide pretreatment) was “only partially reduced”, the “alteration of antihypertensive effect” value (cat [9]; pretreatment with atropine sulphate, mepyramine maleate, propranolol, or yohimbine) was “failed to alter” and the “reduction of antihypertensive effect” value (cat [9]; pretreatment with captopril or Dup-753) was 33%. For the same compound, the “reduction of antihypertensive effect” value (cat [9]; pretreatment with prazosin) was 90%, the “reduction of antihypertensive effect” value (cat [9]; pretreatment with verapamil) was 50% and the B.P. fall (cat [10]) was 22%. The Dur. (cat [10]) was 25 min, the Onset ([11]; 0.001 ug/ml at reperfusion, 90 min. ischemic insult) was 4 min and the “incidence of reperfusion induced arrhythmia” value [11, 15] was “abolished”. The “time until normal rhythmic contraction started” value [11, 15] was ≤ 2 min, the inhibition at 2 µmol/kg (cat [12]; Felis catus, iv, dose 2.0 umol/kg i.v., read-out: Adrenaline vasopressure response % inhibition) was 9% and the inhibition in vivo at 2 µmol/kg (cat [12]; Felis catus, iv, dose 2.0 umol/kg i.v., read-out: B.P. fall %) was 25%. For the same compound, the inhibition at 10 µmol/kg (cat [12]; Felis catus, iv, dose 10.0 umol/kg i.v., read-out: Adrenaline vasopressure response % inhibition) was > 100%, the inhibition in vivo at 10 µmol/kg (cat [12]; Felis catus, iv, dose 10.0 umol/kg i.v., read-out: B.P. fall %) was 31% and the Dur. (cat [12]; dose 2.0 umol/kg i.v.) was 71 min. For the same compound, the Dur. (cat [12]; dose 10.0 umol/kg i.v.) was >112 min and the Onset [13] was 1.5 min.
